Experimental data as given in patent US11299501B2 (BRISTOL-MYERS SQUIBB COMPANY, priority 2017, dated 2022).
pIC50: −log10 of the molar value.

Key:
Assay type in all cases: cell-based
human TLR9 = target: T1, human TLR9 (Homo sapiens, UniProt Q9NR96); assay: TLR9 inhibition reporter assay (HEK-Blue SEAP); conditions: cells overexpressing human TLR9, SEAP reporter, stimulated with ODN2006 5 nM, 22 hour incubation
T1 construct: host or cells: HEK-Blue cells
T1 sequence (Q9NR96 26-1032): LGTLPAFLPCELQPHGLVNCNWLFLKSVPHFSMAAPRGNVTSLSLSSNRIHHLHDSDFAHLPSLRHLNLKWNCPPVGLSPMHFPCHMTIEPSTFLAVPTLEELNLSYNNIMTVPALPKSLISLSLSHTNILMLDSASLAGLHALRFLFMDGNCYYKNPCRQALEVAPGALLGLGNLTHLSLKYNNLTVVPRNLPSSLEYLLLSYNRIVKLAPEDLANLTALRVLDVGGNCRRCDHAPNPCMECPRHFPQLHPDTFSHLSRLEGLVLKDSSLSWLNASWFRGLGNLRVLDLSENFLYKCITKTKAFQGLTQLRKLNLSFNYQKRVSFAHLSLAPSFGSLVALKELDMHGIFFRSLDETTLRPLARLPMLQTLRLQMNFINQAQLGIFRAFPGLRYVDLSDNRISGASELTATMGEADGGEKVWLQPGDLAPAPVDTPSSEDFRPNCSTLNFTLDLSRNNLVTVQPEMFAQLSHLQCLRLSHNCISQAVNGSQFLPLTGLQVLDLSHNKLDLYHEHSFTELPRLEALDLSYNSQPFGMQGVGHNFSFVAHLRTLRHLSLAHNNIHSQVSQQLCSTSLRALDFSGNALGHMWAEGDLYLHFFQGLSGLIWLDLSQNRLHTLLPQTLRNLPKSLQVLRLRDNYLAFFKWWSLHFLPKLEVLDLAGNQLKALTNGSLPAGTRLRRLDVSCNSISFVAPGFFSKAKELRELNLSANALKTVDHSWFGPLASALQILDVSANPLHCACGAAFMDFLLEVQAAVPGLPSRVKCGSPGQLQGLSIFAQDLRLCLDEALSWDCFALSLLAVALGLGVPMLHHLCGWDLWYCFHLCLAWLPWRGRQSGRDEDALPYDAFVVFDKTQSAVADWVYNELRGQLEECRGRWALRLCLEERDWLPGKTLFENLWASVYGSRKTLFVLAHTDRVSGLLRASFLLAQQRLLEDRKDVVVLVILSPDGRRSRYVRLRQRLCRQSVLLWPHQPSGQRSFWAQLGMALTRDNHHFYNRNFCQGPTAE
Method: (§1) TLR7/8/9 Inhibition Reporter Assays
(§2) […] (Invivogen) overexpressing human TLR7, TLR8 or TLR9 receptors were used for screening inhibitors of these receptors using an inducible SEAP (secreted embryonic alkaline phosphatase) reporter gene under the control of the IFN-β minimal promoter fused to five NF-κB and AP-1-binding sites. Briefly, cells are seeded into Greiner 384 well plates (15000 cells per well for TLR7, 20,000 for TLR8 and 25,000 for TLR9) and then treated with test compounds in DMSO to yield a final dose response concentration range of 0.05 nM-50 μM. After a 30 minute compound pre-treatment at room temperature, the cells are then stimulated with a TLR7 ligand (gardiquimod at a final concentration of 7.5 μM). TLR8 ligand (R848 at a final concentration of 15.9 μM) or TLR9 ligand (ODN2006 at a final concentration of 5 nM) to activate NF-κB and AP-1 which induce the production of SEAP. After a 22 hour incubation at 37° C., 5% CO2, SEAP levels are determined with the addition of HEK-Blue™ Detection reagent (Invivogen), a cell culture medium that allows for detection of SEAP, according to manufacturer's specifications. The percent inhibition is determined as the % reduction in the HEK-Blue signal present in wells treated with agonist plus DMSO alone compared to wells treated with a known inhibitor.

human TLR7 = target: T2, human TLR7 (Homo sapiens, UniProt Q9NYK1); assay: TLR7 inhibition reporter assay (HEK-Blue SEAP); conditions: cells overexpressing human TLR7, SEAP reporter, stimulated with gardiquimod 7.5 μM, 22 hour incubation
T2 construct: host or cells: HEK-Blue cells
T2 sequence (Q9NYK1 27-1049): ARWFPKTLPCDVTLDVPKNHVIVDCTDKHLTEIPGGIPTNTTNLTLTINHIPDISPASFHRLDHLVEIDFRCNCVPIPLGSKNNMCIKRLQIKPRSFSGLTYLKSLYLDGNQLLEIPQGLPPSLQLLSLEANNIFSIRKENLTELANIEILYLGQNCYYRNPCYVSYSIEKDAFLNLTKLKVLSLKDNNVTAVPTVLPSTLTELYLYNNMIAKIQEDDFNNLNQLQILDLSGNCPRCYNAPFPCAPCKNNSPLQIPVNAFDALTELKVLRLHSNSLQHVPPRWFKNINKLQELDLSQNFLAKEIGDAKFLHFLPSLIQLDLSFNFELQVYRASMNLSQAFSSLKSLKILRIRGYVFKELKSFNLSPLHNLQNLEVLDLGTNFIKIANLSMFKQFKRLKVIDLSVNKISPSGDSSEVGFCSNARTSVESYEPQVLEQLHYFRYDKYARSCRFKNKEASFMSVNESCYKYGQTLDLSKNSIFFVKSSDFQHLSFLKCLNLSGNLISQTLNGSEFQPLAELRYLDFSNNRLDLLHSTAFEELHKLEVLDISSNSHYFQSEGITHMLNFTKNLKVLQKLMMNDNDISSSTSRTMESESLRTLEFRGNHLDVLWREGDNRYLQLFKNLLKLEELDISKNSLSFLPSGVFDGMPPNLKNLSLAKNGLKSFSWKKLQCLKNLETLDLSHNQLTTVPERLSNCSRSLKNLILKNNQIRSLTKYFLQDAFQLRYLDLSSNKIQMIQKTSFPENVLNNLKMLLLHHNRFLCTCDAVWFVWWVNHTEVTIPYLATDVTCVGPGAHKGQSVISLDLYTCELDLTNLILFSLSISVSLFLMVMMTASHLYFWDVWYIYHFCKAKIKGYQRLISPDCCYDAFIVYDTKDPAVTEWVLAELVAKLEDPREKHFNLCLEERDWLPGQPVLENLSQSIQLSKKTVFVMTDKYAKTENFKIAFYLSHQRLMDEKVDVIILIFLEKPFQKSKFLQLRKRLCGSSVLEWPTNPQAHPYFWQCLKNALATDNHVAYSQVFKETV
Method: as §1, §2

human TLR8 = target: T3, human TLR8 (Homo sapiens, UniProt Q9NR97); assay: TLR8 inhibition reporter assay (HEK-Blue SEAP); conditions: cells overexpressing human TLR8, SEAP reporter, stimulated with R848 15.9 μM, 22 hour incubation
T3 construct: host or cells: HEK-Blue cells
T3 sequence (Q9NR97 27-1041): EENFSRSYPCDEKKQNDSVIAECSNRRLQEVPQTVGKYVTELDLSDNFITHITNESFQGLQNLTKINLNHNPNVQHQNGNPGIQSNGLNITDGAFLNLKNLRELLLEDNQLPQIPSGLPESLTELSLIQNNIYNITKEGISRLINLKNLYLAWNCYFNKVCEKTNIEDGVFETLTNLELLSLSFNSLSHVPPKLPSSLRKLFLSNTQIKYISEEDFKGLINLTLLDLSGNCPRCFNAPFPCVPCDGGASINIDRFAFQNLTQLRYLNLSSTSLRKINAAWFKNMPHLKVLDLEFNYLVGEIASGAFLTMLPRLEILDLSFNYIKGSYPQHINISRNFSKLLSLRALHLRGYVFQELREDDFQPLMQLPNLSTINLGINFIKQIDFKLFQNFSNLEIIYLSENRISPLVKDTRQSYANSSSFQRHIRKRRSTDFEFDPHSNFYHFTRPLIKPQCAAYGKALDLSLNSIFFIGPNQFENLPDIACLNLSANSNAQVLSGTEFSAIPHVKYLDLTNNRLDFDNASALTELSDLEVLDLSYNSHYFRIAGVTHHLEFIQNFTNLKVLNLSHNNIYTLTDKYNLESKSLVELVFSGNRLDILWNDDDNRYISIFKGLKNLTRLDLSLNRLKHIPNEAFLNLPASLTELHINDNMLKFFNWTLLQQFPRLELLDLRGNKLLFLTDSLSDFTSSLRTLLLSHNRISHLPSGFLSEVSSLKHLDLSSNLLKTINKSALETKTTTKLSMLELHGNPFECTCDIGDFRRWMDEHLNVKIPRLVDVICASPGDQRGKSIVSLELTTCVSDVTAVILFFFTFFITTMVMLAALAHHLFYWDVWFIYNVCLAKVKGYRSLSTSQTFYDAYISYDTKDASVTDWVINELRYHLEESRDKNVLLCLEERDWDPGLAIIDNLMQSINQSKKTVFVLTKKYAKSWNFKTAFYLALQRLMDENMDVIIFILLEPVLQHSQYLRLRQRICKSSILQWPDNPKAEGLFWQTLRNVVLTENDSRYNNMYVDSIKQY
Method: as §1, §2

| Structure (SMILES) | pIC50 (human TLR9) | pIC50 (human TLR7) | pIC50 (human TLR8) |
| --- | --- | --- | --- |
| COc1cc(-c2[nH]c3cnc(C4CCN(C5COC5)CC4)nc3c2C(C)C)cn2ncnc12 [Example 14, 6-(7-isopropyl-2-(1-(oxetan-3-yl)piperidin-4-yl)-5H-pyrrolo[3,2-d]pyrimidin-6-yl)-8-methoxy-[1,2,4]triazolo[1,5-a]pyridine] | 4.30 to 6.00 | > 7.00 | > 7.00 |
| Cc1c(-c2[nH]c3cnc(C4CCN(CC(=O)N(C)C)CC4)nc3c2C(C)C)cn2ncnc2c1C [Example 10, 2-(4-(6-(7,8-dimethyl-[1,2,4]triazolo[1,5-a]pyrimidin-6-yl)-7-isopropyl-5H-pyrrolo[3,2-d]pyrimidin-2-yl)piperidin-1-yl)-N,N-dimethylacetantide] | 4.30 to 6.00 | > 7.00 | > 7.00 |
| Cc1cc(-c2[nH]c3cnc(C4CCN(C5COC5)CC4)nc3c2C(C)C)cn(C)c1=O [Example 8, 5-(7-isopropyl-2-(1-(oxetan-3-yl)piperidin-4-yl)-5H-pyrrolo[3,2-d]pyrimidin-6-yl)-1,3-dimethylpyridin-2(1H)-one] | 4.30 to 6.00 | > 7.00 | > 7.00 |
| Cc1c(-c2[nH]c3cnc(C4CCN(C5COC5)CC4)nc3c2C(C)C)cn2ncnc2c1C [Example 19, 6-(7-isopropyl-2-(1-(oxetan-3-yl)piperidin-4-yl)-5H-pyrrolo[3,2-d]pyrimidin-6-yl)-7,8-dimethyl-[1,2,4]triazolo[1,5-a]pyridine] | 4.30 to 6.00 | > 7.00 | > 7.00 |
| CCc1c(-c2ccc(OC)c(OC)c2)[nH]c2nnc(C3CCNCC3)cc12 [Example 1, 6-(3,4-dimethoxyphenyl)-5-ethyl-3-(piperidin-4-yl)-7H-pyrrolo[2,3-c]pyridazine] | 6.00 to 7.00 | 6.00 to 7.00 | 4.30 to 6.00 |

Second part, the molecule after the results:

| pIC50 (human TLR9) | pIC50 (human TLR7) | pIC50 (human TLR8) | Structure (SMILES) |
| --- | --- | --- | --- |
| 6.00 to 7.00 | > 7.00 | > 7.00 | Cc1cc(-c2[nH]c3cnc(C4CCN(C5CCOCC5)CC4)nc3c2C(C)C)cn(C)c1=O [Example 21, 5-(7-isopropyl-2-(1-(tetrahydro-2H-pyran-4-yl)piperidin-4-yl)-5H-pyrrolo[3,2-d]pyrimidin-6-yl)-1,3-dimethylpyridin-2(1H)-one] |
| < 4.30 | > 7.00 | > 7.00 | CNC(=O)CN1CCC(c2ncc3[nH]c(-c4cc(C)c5ncnn5c4)c(C(C)C)c3n2)CC1 [Example 30, 2-(4-(7-isopropyl-6-(8-methyl-[1,2,4]triazolo[1,5-a]pyridin-6-yl)-5H-pyrrolo[3,2-d]pyrimidin-2-yl)piperidin-1-yl)-N-tnethylacetamide] |
| 4.30 to 6.00 | 4.30 to 6.00 | 4.30 to 6.00 | CCc1c(-c2ccc(OC)c(OC)c2)[nH]c2cnc(C(=O)N3CC4CNCC4C3)nc12 (stereo not drawn) [Example 55, (6-(3,4-dimethoxyphenyl)-7-ethyl-5H-pyrrolo[3,2-d]pyrimidin-2-yl)(hexahydropyrrolo[3,4-c]pyrrol-2(1H)-yl)methanone] |
| < 4.30 | 4.30 to 6.00 | 4.30 to 6.00 | CCc1c(-c2ccc(OC)c(OC)c2)[nH]c2cnc(-c3nnc(C(C)(C)N)o3)nc12 [Example 39, 2-(5-(6-(3,4-dimethoxyphenyl)-7-ethyl-5H-pyrrolo[3,2-d]pyrimidin-2-yl)-1,3,4-oxadiazol-2-yl)propan-2-amine] |
| 6.00 to 7.00 | > 7.00 | > 7.00 | COc1ccc(-c2[nH]c3cnc(C4CCN(C5CCN(C(C)C)CC5)CC4)nc3c2C(C)C)cc1OC [Example 22, 6-(3,4-dimedioxyphenyl)-7-isopropyl-2-(1′-isopropyl-[1,4′-bipiperidin]-4-yl)-5H-pyrrolo[3,2-d]pyrimidine] |
| 4.30 to 6.00 | 6.00 to 7.00 | 6.00 to 7.00 | CCc1c(-c2ccc(OC)c(OC)c2)[nH]c2cnc(C3CCN(CC(=O)NC)CC3)nc12 [Example 50] |
| 4.30 to 6.00 | > 7.00 | > 7.00 | Cc1c(-c2[nH]c3cnc(C4CCN(C(=O)CN(C)C)CC4)nc3c2C(C)C)cn2ncnc2c1C [Example 28, 1-(4-(6-(7,8-dimethyl-[1,2,4]triazolo[1,5-a]pyridin-6-yl)-7-isopropyl-5H-pyrrolo[3,2-d]pyrimidin-2-yl)piperidin-1-yl)-2-(dimethylamino)ethan-1-one] |
